Assay results from US12070452B2, “Compounds targeting HSP110 protein for cancer treatment” (INSERM (Institut National de la Santé et de la Recherche …, priority 2018, dated 2024).

Experiments:
[1] = Body and spleen weights of mice during treatment; format: in vivo; settings: immunodeficient mice, 10 or 20 mg/kg intraperitoneally
Protocol: FIG. 11C: Body weight monitoring of Immunodeficient mice treated intraperitoneally with the compound 52 (=inhibitor 52) at 10 or 20 mg/kg or with vehicle at the same frequency. (Abscissa: Days from 0 to 20 in day; Ordinate: Body weight in g from 24 to 34 g (scale 2)).
FIG. 11D: Spleen weights monitoring of Immunodeficient mice treated intraperitoneally with the compound 52 (=inhibitor 52) at 10 or 20 mg/kg or with vehicle at the same frequency. (Abscissa: Treatments vehicle, 10 mg/kg or 20 mg/kg of compound 52; Ordinate: Spleen weight in mg from 20 to 100 mg (scale 20)).

[2] = system: mouse colon cancer CT-26 cells; experiment: Tumor growth, syngeneic CT-26 model in Balb/c mice; format: in vivo; settings: CT-26, 5 mg/Kg intraperitoneally every three days
Protocol: FIG. 6A: Tumor volume monitoring of CT26 cells in Balb/c mice control-treated (Ctrl—line with circle) and treated with the compound 33 (5 mg/kg—line with square). Animals were treated by intraperitoneally injection every three days. (Abscissa: Days from 0 to 16 in day; Ordinate: Tumor volume in mm^3 from 0 to 200 (scale 500))
(§1) Two different colorectal mouse models were used: a syngeneic model for which mouse colon cancer CT-26 cells were injected into Balb/c mice and a NOD/SCID model in which mice were implanted with human colorectal cancer HCT116 cells (FIG. 4 A-B). When the tumor reached a size of −2 mm, mice were treated intraperitoneally with the compound 33 at 5 mg/Kg (BALB/c n=11, NOD SCID n=6) or corn oil 5% DMSO (BALB/c n=10, NOD SCID n=6), every three days until the end of the experiment. The compound 33 was dissolved in DMSO, then diluted 20 times in corn oil (Sigma Aldrich-C8267) and sterilized by filtration with PTFE membrane Millex 0.2 μm (Millipore-SLFG025LS). Tumors were analyzed before reaching 2000 mm3. Treatment by compound 33 induces a decrease in tumor growth of 40% and 60% in the Balb/c and NOD mice, respectively (FIGS. 6A and 6B).

[3] = system: human colorectal cancer HCT116 cells; experiment: Tumor growth, HCT116 xenograft in NOD/SCID mice; format: in vivo; settings: HCT116, 5 mg/Kg intraperitoneally every three days
Protocol: FIG. 6B: Tumor volume monitoring of HCT116 cells grown in NOD/SCID animals treated intraperitoneally either with a non-relevant compound which is DMSO (named VEH line with circle) or treated with the compound 33 (5 mg/kg—line with square) (Abscissa: Days from 0 to 62 in day; Ordinate: Tumor volume in mm^3 from 0 to 2500 (scale 500)).
as §1

HCT116 tumors = experiment: Immunofluorescence of cleaved caspase-3 in HCT116 tumor slides (NOD/SCID); format: in vivo, human; settings: NOD/SCID model
Protocol: FIG. 7C: Immunofluorescence assay of Cleaved caspase-3 (C3C) in HCT116 from NOD mice tumors treated with VEH (column on the left) or with compound 33 (column on the right). […] (Ordinate: Caspase-3 cleaved relative fluorescence in percentage). Statistical analysis has been performed by ANOVA (***=p=0.0003). Scale bar=50 μm.
as §1

[4] = system: tumor-infiltrating macrophages; experiment: Macrophage M1/M2-like markers in tumor slides, CT-26-Balb/c model; format: in vivo, mouse
Protocol: FIG. 8A: Pro-inflammatory M1-like macrophage markers pSTAT1 and NOS2 determined in tumor slides from CT-26-Balb/c mice model. Animals were treated or not every 3 days with the compound 33 (5 mg/Kg) Statistical analysis has been performed by ANOVA (***=p=0.0051). […] FIG. 9A: Anti-inflammatory macrophage M2-like markers Arg1 and pSTAT6 determined in tumor slides from CT-26-Ballb/c mice model. Animals were treated or not every 3 days with the compound 33 (5 mg/Kg). Statistical analysis has been performed by ANOVA (***=p=0.0031). […] Anti-p-STAT1 (1/200; polyclonal, Cell Signaling), anti-SOCS1 (Suppressor of Cytokine Signaling protein 1, 1/200; polyclonal, Santa Cruz), and anti-NOS2 (Nitric Oxide Synthase 2, 1/200; polyclonal Santa Cruz) antibodies were used for M1-like macrophage markers. Anti-pSTAT6 (1/200; polyclonal Santa Cruz), anti-arginase-1 (1/200; polyclonal Santa Cruz) and anti-ALOX15 (Arachidonate 15-LipOXygenase, 1/200; monoclonal Santa Cruz) antibodies were used for M2-like macrophage markers. Primary antibodies were detected using Alexa fluor 488 or Alexa fluor 568-coupled secondary antibodies (1/500, Invitrogen). Nuclei were stained with 10 μl of ProLong Gold Antifade Mountant with DAPI (Molecular Probes). The same protocol was used for NOD/SCID mice except that mice were killed after 16 days after HCT116 cells injection. For the Balb/c model, mice were sacrificed at day […] (day 1 being the first day of treatment). […] Especially the pSTAT1 relative expression measured is about 1.5 for compound 33 compared to 1.0 for the control, the NOS2 relative expression measured is about 1 for compound 33 compared to 2.5 for the control (FIG. 8A) in CT-26-Balb/c mice model. The pSTAT1 relative expression measured is about 1.5 for compound 33 compared to 0 for the control and the NOS2 relative expression measured is about 20 for compound 33 compared to 2 for the control (FIG. 8B) in NOD/SCID mice model.

[5] = CT-26-Balb/c model, control 1.0

SMILES | toxicity (body and spleen weights) [1] | decrease in tumor growth [2] | decrease in tumor growth [3] | tumor cell apoptosis (cleaved caspase-3 staining) (HCT116 tumors) | SOCS1 expression (M1 marker) ([4]; Balb/c (syngeneic) model) | pSTAT1 relative expression (M1 marker) ([4]; CT-26-Balb/c model, 5 mg/Kg, control 1.0) | NOS2 relative expression (M1 marker) ([4]; CT-26-Balb/c model, 5 mg/Kg, control 2.5 as printed) | Arg1 relative expression (M2 marker) [4, 5] | pSTAT6 relative expression (M2 marker) [4, 5]
COc1cc(-c2cnc(-c3cnc(-c4cc(OC)c(OC)c(OC)c4)c(C)c3)c(/C=C/c3ccccc3)c2)cc(OC)c1OC [compound 52, (E)-5′-Methyl-3-styryl-5,6′-bis(3,4,5-trimethoxyphenyl)-2,3′-bipyridine] | no toxicity |  |  |  |  |  |  |  | 
COc1ccc(-c2ncc(-c3ncc(-c4cc(OC)c(OC)c(OC)c4)cc3/C=C/c3ccccc3)cc2C)cc1OC [compound 33, (E)-6′-(3,4-Dimethoxyphenyl)-5′-methyl-3-styryl-5-(3,4,5-trimethoxyphenyl)-2,3′-bipyridine] |  | 40% | 60% | increase in tumor cell apoptosis | increase | about 1.5 | about 1 | about 0.5 | about 0.5
